Structures can show the parent of a compound that is named as a salt.

The source of these data is patent US8697725B2, “Tetrahydroquinoline derivatives and their pharmaceutical use” (GlaxoSmithKline LLC, priority 2009, dated 2014).

For the test, the system named is IL-6. The test can be described thus: Measurement of LPS Induced IL-6 Secretion from Whole Blood. In kind it is cell-based. Conditions: 24 h, LPS 200 ng/ml, immunoassay, read-out: pIC50, LPS induced IL-6 secretion from whole blood (converted). The procedure: Measurement of LPS Induced IL-6 Secretion from Whole Blood
Activation of monocytic cells by agonists of toll-like receptors such as bacterial lipopolysaccharide (LPS) results in production of key inflammatory mediators including IL-6. Such pathways are widely considered to be central to the pathophysiology of a range of auto-immune and inflammatory disorders.
Compounds to be tested are diluted to give a range of appropriate concentrations of which 1 ul of the diluted stocks is added to a 96 well plate. Following addition of whole blood (130 ul) the plates are incubated at 37 degrees (5% CO2) for 30 min before the addition of 10 ul of 2.8 ug/ml LPS, diluted in complete RPMI 1640 (final concentration=200 ng/ml), to give a total volume of 140 ul per well. After further incubation for 24 hours at 37 degrees, 140 ul of PBS are added to each well. The plates are sealed, shaken for 10 minutes and then centrifuged (2500 rpm×10 min). 100 ul of the supernatant are removed and IL-6 levels assayed by immunoassay (typically by MesoScale Discovery technology) either immediately or following storage at −20 degrees. Concentration response curves for each compound was generated from the data and an IC50 value was calculated.

Take `CC(=O)N1c2ccc(-c3cn(CCCN(C)C)nn3)cc2[C@H](NC(=O)OC(C)C)C[C@@H]1C` [Example 81, 1-Methylethyl((2S,4R)-1-acetyl-6-{1-[3-(dimethylamino)propyl]-1H-1,2,3-triazol-4-yl}-2-methyl-1,2,3,4-tetrahydro-4-quinolinyl)carbamate formate salt]: the IC50 is ≤ 31.6 µM.

With `CC(=O)N1c2ccc(-n3cnc(CO)c3)cc2[C@@H](NC(=O)OC(C)C)C[C@H]1C` (racemic) [Example 89, 1-Methylethyl {(cis)-1-acetyl-6-[4-(hydroxymethyl)-1H-imidazol-1-yl]-2-methyl-1,2,3,4-tetrahydro-4-quinolinyl}carbamate], the IC50 was ≤ 31.6 µM.

`CC(=O)N1c2ccc(-n3cnc(CNCCO)c3)cc2[C@@H](NC(=O)OC(C)C)C[C@H]1C` (racemic) [Example 92, 1-Methylethyl[(cis)-1-acetyl-6-(4-{[(2-hydroxyethyl)amino]methyl}-1H-imidazol-1-yl)-2-methyl-1,2,3,4-tetrahydro-4-quinolinyl]carbamate]: the IC50 was ≤ 31.6 µM.

Consider `CC(=O)N1c2ccc(-c3cn(CC(=O)O)cn3)cc2[C@@H](NC(=O)OC(C)C)C[C@H]1C` (racemic) [Example 90, {4-[(Cis)-1-acetyl-2-methyl-4-({[(1-methylethyl)oxy]carbonyl}amino)-1,2,3,4-tetrahydro-6-quinolinyl]-1H-imidazol-1-yl}acetic acid trifluoroacetate], for which the IC50 was ≤ 31.6 µM.

In the case of `CNCCc1noc(-c2ccc3c(c2)[C@H](NC(=O)OC(C)C)C[C@H](C)N3C(C)=O)n1` [Example 71, 1-Methylethyl((2S,4R)-1-acetyl-2-methyl-6-{3-[2-(methylamino)ethyl]-1,2,4-oxadiazol-5-yl}-1,2,3,4-tetrahydro-4-quinolinyl)carbamate hydrochloride], the IC50 was ≤ 31.6 µM.

With `CC(=O)N1c2ccc(-c3ccc(CCO)cc3)cc2[C@H](NC(=O)OC(C)C)C[C@@H]1C` [Example 95, 1-Methylethyl {(2S,4R)-1-acetyl-6-[4-(2-hydroxyethyl)phenyl]-2-methyl-1,2,3,4-tetrahydro-4-quinolinyl}carbamate], the IC50 is ≤ 31.6 µM.

For `CC(=O)N1c2ccc(-c3cn(CCC(=O)O)cn3)cc2[C@@H](NC(=O)OC(C)C)C[C@H]1C` (racemic) [Example 99, 3-{(Cis)-4-[1-acetyl-2-methyl-4-({[(1-methylethyl)oxy]carbonyl}amino)-1,2,3,4-tetrahydro-6-quinolinyl]-1H-imidazol-1-yl}propanoic acid trifluoroacetate], the IC50 was ≤ 31.6 µM.

In the case of `CC(=O)N1c2ccc(-c3noc(CN)n3)cc2[C@H](NC(=O)OC(C)C)C[C@@H]1C` [Example 66, 1-Methylethyl {(2S,4R)-1-acetyl-6-[5-(aminomethyl)-1,2,4-oxadiazol-3-yl]-2-methyl-1,2,3,4-tetrahydro-4-quinolinyl}carbamate hydrochloride], the IC50 is ≤ 31.6 µM.

As to `CC(=O)N1c2ccc(-c3ccccc3)cc2[C@H](NC(=O)OC(C)C)C[C@@H]1C` [Example 94, 1-Methylethyl[(2S,4R)-1-acetyl-2-methyl-6-phenyl-1,2,3,4-tetrahydro-4-quinolinyl]carbamate], the IC50 was ≤ 31.6 µM.

Turning to `CC(=O)N1c2ccc(-c3ccccc3C)cc2[C@H](NC(=O)OC(C)C)C[C@@H]1C` [Example 93, 1-Methylethyl[(2S,4R)-1-acetyl-2-methyl-6-(2-methylphenyl)-1,2,3,4-tetrahydro-4-quinolinyl]carbamate], the IC50 was ≤ 31.6 µM.

As to `CC(=O)N1c2ccc(-c3ccc(CCN)cc3)cc2[C@H](NC(=O)OC(C)C)C[C@@H]1C` [Example 96, 1-Methylethyl {(2S,4R)-1-acetyl-6-[4-(2-aminoethyl)phenyl]-2-methyl-1,2,3,4-tetrahydro-4-quinolinyl}carbamate hydrochloride], the IC50 is ≤ 31.6 µM.

Regarding `CC(=O)N1c2ccc(-n3cnc(C)c3)cc2[C@H](NC(=O)OC(C)C)C[C@@H]1C` [Example 84, 1-Methylethyl[(2S,4R)-1-acetyl-2-methyl-6-(4-methyl-1H-imidazol-1-yl)-1,2,3,4-tetrahydro-4-quinolinyl]carbamate], the IC50 was ≤ 31.6 µM.

Turning to `CC(=O)N1c2ccc(-c3ccc(CCC(=O)O)cc3)cc2[C@H](NC(=O)OC(C)C)C[C@@H]1C` [Example 102, 3-{4-[(2S,4R)-1-Acetyl-2-methyl-4-({[(1-methylethyl)oxy]carbonyl}amino)-1,2,3,4-tetrahydro-6-quinolinyl]phenyl}propanoic acid], the IC50 is ≤ 31.6 µM.

Take `CC(=O)N1c2ccc(-c3ccc(N)nc3)cc2[C@H](NC(=O)OC(C)C)C[C@@H]1C` [Example 110, 1-methylethyl[(2S,4R)-1-acetyl-6-(6-amino-3-pyridinyl)-2-methyl-1,2,3,4-tetrahydro-4-quinolinyl]carbamate]: the IC50 was ≤ 31.6 µM.

In the case of `CC(=O)N1c2ccc(-c3noc(CCN(C)C)n3)cc2[C@H](NC(=O)OC(C)C)C[C@@H]1C` [Example 78, 1-Methylethyl((2S,4R)-1-acetyl-6-{5-[2-(dimethylamino)ethyl]-1,2,4-oxadiazol-3-yl}-2-methyl-1,2,3,4-tetrahydro-4-quinolinyl)carbamate hydrochloride], the IC50 is ≤ 31.6 µM.

As for `CC(=O)N1c2ccc(-c3noc(C)n3)cc2[C@H](NC(=O)OC(C)C)C[C@@H]1C` [Example 64, 1-Methylethyl[(2S,4R)-1-acetyl-2-methyl-6-(5-methyl-1,2,4-oxadiazol-3-yl)-1,2,3,4-tetrahydro-4-quinolinyl]carbamate], the IC50 was ≤ 31.6 µM.

`CC(=O)N1c2ccc(-c3nnc(C)s3)cc2[C@H](NC(=O)OC(C)C)C[C@@H]1C` [Example 68, 1-Methylethyl[(2S,4R)-1-acetyl-2-methyl-6-(5-methyl-1,3,4-thiadiazol-2-yl)-1,2,3,4-tetrahydro-4-quinolinyl]carbamate]: the IC50 is ≤ 31.6 µM.

In the case of `CC(=O)N1c2ccc(-c3c[nH]nn3)cc2[C@H](NC(=O)OC(C)C)C[C@@H]1C` [Example 65, 1-Methylethyl[(2S,4R)-1-acetyl-2-methyl-6-(1H-1,2,3-triazol-4-yl)-1,2,3,4-tetrahydro-4-quinolinyl]carbamate], the IC50 is ≤ 31.6 µM.

For the compound `CC(=O)N1c2ccc(-c3nc(CCN)no3)cc2[C@H](NC(=O)OC(C)C)C[C@@H]1C` [Example 70, 1-Methylethyl {(2S,4R)-1-acetyl-6-[3-(2-aminoethyl)-1,2,4-oxadiazol-5-yl]-2-methyl-1,2,3,4-tetrahydro-4-quinolinyl}carbamate hydrochloride], the IC50 was ≤ 31.6 µM.

On to `CC(=O)N1c2ccc(-c3ncc[nH]3)cc2[C@H](NC(=O)OC(C)C)C[C@@H]1C` [Example 86, 1-Methylethyl[(2S,4R)-1-acetyl-6-(1H-imidazol-2-yl)-2-methyl-1,2,3,4-tetrahydro-4-quinolinyl]carbamate], for which the IC50 is ≤ 31.6 µM.

`CC(=O)N1c2ccc(-c3cncn3C)cc2[C@H](NC(=O)OC(C)C)C[C@@H]1C` [Example 82, 1-Methylethyl[(2S,4R)-1-acetyl-2-methyl-6-(1-methyl-1H-imidazol-5-yl)-1,2,3,4-tetrahydro-4-quinolinyl]carbamate]: the IC50 was ≤ 31.6 µM.

For the compound `CC(=O)N1c2ccc(-n3cnc(C(=O)O)c3)cc2[C@@H](NC(=O)OC(C)C)C[C@H]1C` (racemic) [Example 87, 1-[(Cis)-1-acetyl-2-methyl-4-({[(1-methylethyl)oxy]carbonyl}amino)-1,2,3,4-tetrahydro-6-quinolinyl]-1H-imidazole-4-carboxylic acid], the IC50 is ≤ 31.6 µM.

On to `CC(=O)N1c2ccc(-n3cnc(C)c3)cc2[C@H](NC(=O)OC(C)C)C[C@@H]1C` (single isomer, unassigned) [Example 103], for which the IC50 is ≤ 31.6 µM.

As for `CC(=O)N1c2ccc(-c3cn(C)cn3)cc2[C@H](NC(=O)OC(C)C)CC1C` (stereo partly drawn) [Example 83, 1-Methylethyl[(2S,4R)-1-acetyl-2-methyl-6-(1-methyl-1H-imidazol-4-yl)-1,2,3,4-tetrahydro-4-quinolinyl]carbamate hydrochloride], the IC50 is ≤ 31.6 µM.

For `CC(=O)N1c2ccc(-n3cnc(C)c3)cc2[C@H](NC(=O)OC(C)(C)C)C[C@@H]1C` (relative stereo) [Example 123, 1,1-Dimethylethyl[(cis)-1-acetyl-2-methyl-6-(4-methyl-1H-imidazol-1-yl)-1,2,3,4-tetrahydro-4-quinolinyl]carbamate], the IC50 is ≤ 31.6 µM.

On to `CC(=O)N1c2ccc(-n3ccnc3C)cc2[C@H](NC(=O)OC(C)C)C[C@@H]1C` [Example 88, 1-Methylethyl[(2S,4R)-1-acetyl-2-methyl-6-(2-methyl-1H-imidazol-1-yl)-1,2,3,4-tetrahydro-4-quinolinyl]carbamate], for which the IC50 is ≤ 31.6 µM.

Regarding `CC(=O)N1c2ccc(-c3cn(CCN)nn3)cc2[C@H](NC(=O)OC(C)C)C[C@@H]1C` [Example 79, 1-Methylethyl {(2S,4R)-1-acetyl-6-[1-(2-aminoethyl)-1H-1,2,3-triazol-4-yl]-2-methyl-1,2,3,4-tetrahydro-4-quinolinyl}carbamate hydrochloride], the IC50 is ≤ 31.6 µM.

Turning to `CC(=O)N1c2ccc(-c3ccc(CC(=O)O)cc3)cc2[C@H](NC(=O)OC(C)C)C[C@@H]1C` [Example 67, {4-[(2S,4R)-1-Acetyl-2-methyl-4-({[(1-methylethyl)oxy]carbonyl}amino)-1,2,3,4-tetrahydro-6-quinolinyl]phenyl}acetic acid], the IC50 is ≤ 31.6 µM.
